# Laboratory results as given in US20180140578A1, “METHODS AND COMPOSITIONS FOR THE DIAGNOSIS AND SELECTIVE TREATMENT OF CANCER” (Board of Regents of the University of Texas System, priority 2016, published 2018).
# Entries after “also recorded” stand apart in the source; their conditions may differ.
# Experiments:
# [1] = test system: indisulam resistant HCT-116 clones; assay: Cell viability assay, indisulam resistant clones; format: cell-based, human
# Procedure: The methods for generating a population of barcoded HCT-116 cells were described before (20). […] Clones that appeared after the selection was then expanded and barcode genotyped to identify six clones with unique barcodes. […] Source data for exome sequencing data is available under NCBI SRA accession SRP068238. Bortezomib resistant clones were isolated by selection with 5 nM bortezomib, and MLN4924 resistant clones with 40 nM MLN4924.
# 12-point dose responses were performed on 96-well assay plates with cell plating (1500-4000 cell per well) on day 1, compound addition on day 2, and survival measurement on day 5. Compounds were diluted in DMSO before adding to the cells. Final DMSO concentration was 0.5%. Cell survival assay was performed using CellTiter-Glo Luminescent Cell Viability Assay kit (Promega) that measures cellular ATP content. Luminescence was recorded by EnVison multimode plate reader (Perkin Elmer). IC50 was determined with GraphPad Prism using baseline correction (by normalizing to DMSO control), the asymmetric (five parameter) equation and least squares fit.
# [2] = test system: H1155 cells transduced with DCAF15-3xFLAG cDNA; assay: Cell viability assay, DCAF15 overexpression; format: cell-based, human; conditions: H1155 cells expressing higher than normal levels of DCAF15
# [3] = test system: tumors derived from HCT-116 cells expressing RBM39 G268V; assay: Mouse xenograft model, HCT-116 RBM39 G268V; format: in vivo, Nod-Scid IL-2Rγ KO mice
# Procedure: All animal work was approved by the Institutional Animal Care and Use Committee at UTSW. UTSW is accredited by the Association for Assessment and Accreditation of Laboratory Animal Care International (AAALAC). Animals were obtained from the UTSW Breeding Core Facility. Nod-Scid IL-2Rγ KO mice were implanted with 5 million parental HCT-116 cells or HCT-116 cells expressing RBM39 G268V in a volume of 0.1 ml in the left flank. Tumor volumes were measured every 2-4 days with calipers. Volume is calculated as (L*W^2)*3.14)/6.
# [4] = test system: RBM39 mRNA; assay: qPCR quantification of RBM39 mRNA; format: cell-based, human; conditions: HCT-116 cells after indisulam treatment
# Procedure: RNAs isolated from indisulam or siRNA treated cells were first treated with Turbo DNase (Life Technologies) to remove contaminating genomic DNA. After RNA cleanup with Quick-RNA MiniPrep kit (Zymo Research), 500 ng of total RNAs was converted into cDNAs with Multiscribe reverse transcriptase (Life Technologies). Exon skipping in TRIM27 was visualized by PCR amplification with 5′-[…]-3′ (SEQ ID NO: 3) and 5′-[…]-3′ (SEQ ID NO: 4) from cDNAs. […] Relative RNA levels were calculated based on 2^−ct method using Cyclophilin mRNA for normalization. The following primers were used for quantification of mRNA levels: […]
# For measurement of RBM39 mRNA levels, the following primers were used: […]
# [5] = molecular target: T1, DCAF15-3xFLAG and RBM39Δ150 (Homo sapiens, UniProt Q14498+Q66K64); assay: RBM39Δ150 pulldown assay; format: binding
# T1 construct: Full-length cDNAs encoding CUL4A, CUL4B, DCAF15, and DDB1 were cloned into pLVX IRES Puro; made in house; host or cells: RBM39Δ150: Sf9 (baculovirus); DCAF15-3xFLAG: anti-FLAG beads from HCT-116 or 293T cells stably expressing it
# Procedure: RBM39 lacking the first 150 amino acids after the start codon (RBM39Δ150) was cloned into the pFastBac1 (Life Technologies) vector. Site-directed Mutagenesis of RBM39 was performed using Q5 site-directed mutagenesis kit (NEB). DCAF15-GST (C-terminal GST tag) and DDB1 were also cloned into pFastBac1. The production of baculovirus was carried out following vendor's instructions. Protein was expressed in SF9 cells by infection with each protein specific baculovirus, and cells were harvested 48 hr later and frozen in liquid nitrogen. For purification of RBM39Δ150, frozen cells were pulverized by cryomill and resuspended in lysis buffer (40 mM Tris, pH 7.5, 225 mM NaCl, 1× […] Protease inhibitor). The lysate was passed through a 22 gauge needle 2 times followed by ultracentrifugation at 25000 rpm for 30 min. Clarified lysate was incubated with Ni-NTA agarose (Qiagen) for 30 min with rotation at 4° C. Resin and bound protein were washed with wash buffer 1 (40 mM Tris, pH 7.5, 225 mM NaCl) followed by wash buffer 2 (40 mM Tris, pH 7.5, 20 mM imidazole, 225 mM NaCl). Proteins were eluted with elution buffer (40 mM Tris, pH 7.5, 300 mM imidazole, 225 mM NaCl) and concentrated to 0.5 ml. Concentrated proteins were then fractionated on Superdex 200 Increase 10/300 GL (GE Healthcare). RBM39Δ150 and mutants eluted at 14.8 ml after injection and were stored at −80° C. in 40 mM Tris, pH 7.5, 225 mM NaCl. For purification of DCAF15-GST/DDB1, Sf9 cells co-infected with DCAF15-GST and DDB1 baculoviruses were lysed in PBS supplemented with 0.1% NP40, 1× […] Protease inhibitors, and 0.5 mM PMSF. The lysate was passed through a 22 gauge needle 2 times followed by centrifugation at 7000 rpm for 15 min. Clarified lysate was incubated with Glutathione Sepharose 4B resin (GE healthcare) for 30 min with rotation at 4° C. Resin was washed with PBS for three times before elution with 50 mM Tris, 10 mM glutathione, pH 8.
# HCT-116 cells stably expressing DDB1-3xFLAG, CUL4A-3xFLAG, CUL4B-3xFLAG, or to DCAF15-3xFLAG were lysed in 1×PBS, 0.1% NP40, and 1× […] protease inhibitor (1 ml per […] plate). […]
# [6] = test system: DCAF15-3xFLAG and mutant RBM39Δ150 (M265L, E271Q, P272S); assay: RBM39Δ150 pulldown assay, mutant RBM39; format: binding, human; conditions: at concentrations as high as 10 μM
# Procedure: RBM39 lacking the first 150 amino acids after the start codon (RBM39Δ150) was cloned into the pFastBac1 (Life Technologies) vector. Site-directed Mutagenesis of RBM39 was performed using Q5 site-directed mutagenesis kit (NEB). DCAF15-GST (C-terminal GST tag) and DDB1 were also cloned into pFastBac1. The production of baculovirus was carried out following vendor's instructions. Protein was expressed in SF9 cells by infection with each protein specific baculovirus, and cells were harvested 48 hr later and frozen in liquid nitrogen. For purification of RBM39Δ150, frozen cells were pulverized by cryomill and resuspended in lysis buffer (40 mM Tris, pH 7.5, 225 mM NaCl, 1× […] Protease inhibitor). The lysate was passed through a 22 gauge needle 2 times followed by ultracentrifugation at 25000 rpm for 30 min. Clarified lysate was incubated with Ni-NTA agarose (Qiagen) for 30 min with rotation at 4° C. Resin and bound protein were washed with wash buffer 1 (40 mM Tris, pH 7.5, 225 mM NaCl) followed by wash buffer 2 (40 mM Tris, pH 7.5, 20 mM imidazole, 225 mM NaCl). Proteins were eluted with elution buffer (40 mM Tris, pH 7.5, 300 mM imidazole, 225 mM NaCl) and concentrated to 0.5 ml. Concentrated proteins were then fractionated on Superdex 200 Increase 10/300 GL (GE Healthcare). […]
# [7] = test system: human cancer cell lines; conditions: cited from earlier work
# T1 sequence (Q66K64 whole entry, stated change not applied): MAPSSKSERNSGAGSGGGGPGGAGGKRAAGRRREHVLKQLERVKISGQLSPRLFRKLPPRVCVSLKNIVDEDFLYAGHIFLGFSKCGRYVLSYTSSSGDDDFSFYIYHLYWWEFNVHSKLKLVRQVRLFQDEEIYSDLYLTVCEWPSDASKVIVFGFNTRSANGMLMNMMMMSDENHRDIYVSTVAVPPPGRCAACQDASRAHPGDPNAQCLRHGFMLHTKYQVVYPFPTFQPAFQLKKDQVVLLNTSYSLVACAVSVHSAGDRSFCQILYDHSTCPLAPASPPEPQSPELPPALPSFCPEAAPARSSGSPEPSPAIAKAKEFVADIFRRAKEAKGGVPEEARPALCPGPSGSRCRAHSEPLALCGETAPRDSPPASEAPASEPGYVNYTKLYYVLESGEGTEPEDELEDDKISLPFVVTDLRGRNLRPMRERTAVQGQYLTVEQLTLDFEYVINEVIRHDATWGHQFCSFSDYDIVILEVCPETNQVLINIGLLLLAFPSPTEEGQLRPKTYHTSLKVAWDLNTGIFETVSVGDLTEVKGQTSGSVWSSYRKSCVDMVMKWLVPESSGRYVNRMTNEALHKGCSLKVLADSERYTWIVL
# T1 sequence (Q14498 151-530 limits assumed, stated change not applied): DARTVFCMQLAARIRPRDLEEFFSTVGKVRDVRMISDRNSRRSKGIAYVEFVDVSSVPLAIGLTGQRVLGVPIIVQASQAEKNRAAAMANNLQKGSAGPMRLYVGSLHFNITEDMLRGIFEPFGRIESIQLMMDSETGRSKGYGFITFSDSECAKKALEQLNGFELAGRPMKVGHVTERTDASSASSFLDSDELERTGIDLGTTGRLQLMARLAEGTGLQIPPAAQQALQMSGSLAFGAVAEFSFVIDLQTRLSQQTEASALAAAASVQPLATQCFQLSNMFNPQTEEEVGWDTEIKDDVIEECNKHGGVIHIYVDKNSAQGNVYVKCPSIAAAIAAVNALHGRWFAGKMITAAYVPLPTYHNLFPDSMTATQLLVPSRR
# T1 sequence (Q16531 whole entry partner): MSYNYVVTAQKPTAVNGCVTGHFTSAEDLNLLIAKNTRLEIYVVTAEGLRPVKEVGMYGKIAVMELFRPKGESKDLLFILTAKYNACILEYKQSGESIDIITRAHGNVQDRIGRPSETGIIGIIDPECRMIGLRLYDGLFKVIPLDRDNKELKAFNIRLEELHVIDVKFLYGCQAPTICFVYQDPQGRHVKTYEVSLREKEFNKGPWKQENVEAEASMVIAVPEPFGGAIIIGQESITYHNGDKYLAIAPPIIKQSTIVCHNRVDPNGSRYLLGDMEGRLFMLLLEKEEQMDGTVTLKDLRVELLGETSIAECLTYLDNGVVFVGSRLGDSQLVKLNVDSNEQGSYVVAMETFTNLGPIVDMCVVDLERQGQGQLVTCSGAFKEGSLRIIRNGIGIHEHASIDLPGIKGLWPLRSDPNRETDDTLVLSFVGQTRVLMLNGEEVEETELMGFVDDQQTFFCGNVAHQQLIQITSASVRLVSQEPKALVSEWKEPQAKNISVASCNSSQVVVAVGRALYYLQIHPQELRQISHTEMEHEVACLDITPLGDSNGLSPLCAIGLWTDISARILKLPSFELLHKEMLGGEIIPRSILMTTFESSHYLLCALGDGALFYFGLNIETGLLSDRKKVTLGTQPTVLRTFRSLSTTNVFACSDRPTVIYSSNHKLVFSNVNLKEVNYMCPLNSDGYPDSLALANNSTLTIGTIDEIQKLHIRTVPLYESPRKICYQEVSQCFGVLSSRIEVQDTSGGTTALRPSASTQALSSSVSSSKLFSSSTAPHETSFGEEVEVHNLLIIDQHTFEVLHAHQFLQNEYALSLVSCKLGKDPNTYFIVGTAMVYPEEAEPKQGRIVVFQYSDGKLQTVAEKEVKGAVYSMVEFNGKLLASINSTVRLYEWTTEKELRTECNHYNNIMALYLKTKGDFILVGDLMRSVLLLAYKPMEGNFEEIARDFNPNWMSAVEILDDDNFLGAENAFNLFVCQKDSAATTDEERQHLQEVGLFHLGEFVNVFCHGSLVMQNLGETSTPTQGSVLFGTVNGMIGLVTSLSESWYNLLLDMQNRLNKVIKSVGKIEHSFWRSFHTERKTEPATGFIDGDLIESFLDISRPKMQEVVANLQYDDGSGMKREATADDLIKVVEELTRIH
structure (smiles),measurement,setting,value
"NS(=O)(=O)c1ccc(S(=O)(=O)Nc2cccc3c(Cl)c[nH]c23)cc1 [Indisulam, indisulam]",IC50,"[1]; Homo sapiens, HCT-116",9.3 µM
same,sensitivity of indisulam resistant clones,"[1]; five of six clones, concentrations as high as 50",insensitive
same,times less sensitive than the parental HCT-116 cells,[1]; sixth indisulam resistant clone,17 times
same,sensitivity vs mock treated cells,[2],more sensitive
same,tumor response,"[3]; 25 mg/kg indisulam intravenous once a day for eight days, RBM39 G268V",grew at a rate indistinguishable from that of the control group; also recorded: resistant
same,Average maximal weight loss from start of therapy to 1 day post final dose,"[3]; G268V xenograft, 25 mg/kg once a day for eight days",8.4%
same,RBM39 mRNA,[4],no dose dependent decrease
same,co-purification of DCAF15 with RBM39Δ150,"[5]; in the presence of indisulam, not DDB1, CUL4A or CUL4B",co-purified
same,indisulam concentration at which RBM39Δ150-DCAF15 complex was apparent,[5]; wild type RBM39Δ150,0.10 µM
same,recruitment of M265L or E271Q variants of RBM39Δ150 to DCAF15,[6],failed to recruit
same,effect on cell cycle,[7],cell cycle arrest in the G1 phase followed by cell death
